How the values were obtained:
Substance-P receptor = Substance-P receptor (Homo sapiens, UniProt P25103); experiment: Inhibition of [125I]-substance P binding to human neurokinin-1 (hNK-1) receptor in CHO cells; type: cell-based
[1] = Inhibition of [3H]diltiazem binding to L-type calcium channels of rabbit skeletal muscle; type: tissue-based, Oryctolagus cuniculus, Muscle tissue

Chain of Substance-P receptor (P25103 whole entry): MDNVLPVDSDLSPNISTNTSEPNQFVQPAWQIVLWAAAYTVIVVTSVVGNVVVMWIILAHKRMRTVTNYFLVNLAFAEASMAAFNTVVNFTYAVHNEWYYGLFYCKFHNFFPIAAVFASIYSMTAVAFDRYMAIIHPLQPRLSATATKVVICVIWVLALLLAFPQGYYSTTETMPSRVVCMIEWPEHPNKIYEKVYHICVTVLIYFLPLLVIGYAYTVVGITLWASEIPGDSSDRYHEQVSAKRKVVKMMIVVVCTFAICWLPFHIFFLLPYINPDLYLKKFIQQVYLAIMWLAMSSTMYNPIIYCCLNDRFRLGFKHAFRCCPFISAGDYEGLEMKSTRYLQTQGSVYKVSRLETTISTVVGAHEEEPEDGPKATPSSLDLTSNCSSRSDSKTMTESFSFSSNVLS

Row | SMILES | IC50 (Substance-P receptor) | IC50 [1]
1 | CCCCCN(CCCCC)C(=O)[C@H]1CCN(C(=O)N(c2ccccc2)c2cccc(Cl)c2)[C@H](C(=O)NCCN(CC(N)=O)C(=O)OCc2ccccc2)C1 | 1.8 nM | > 5000 nM
2 | CCCCCN(CCCCC)C(=O)[C@H]1CCN(C(=O)N(c2ccccc2)c2cccc(Cl)c2)[C@H](C(=O)O)C1 | 20 nM | > 5000 nM
3 | COc1ccccc1CN(C)CCNC(=O)[C@@H]1C[C@@H](C(=O)N(Cc2ccccc2)Cc2ccccc2)CCN1C(=O)N(c1ccccc1)c1cccc(Cl)c1 | 0.7 nM | 110 nM
4 | CCCCCN(CCCCC)C(=O)N1CCN(C(=O)N(c2ccccc2)c2cccc(Cl)c2)[C@H](C(=O)NCCCN(CC)CC)C1 | 8 nM | –
5 | CCCCCN(CCCCC)C(=O)[C@H]1CCN(C(=O)N(c2ccccc2)c2cccc(Cl)c2)[C@H](C(=O)NCCN(C)Cc2ccccc2OC)C1 | 1.4 nM | 210 nM
6 | COC(=O)[C@H]1CCN(C(=O)N(c2ccccc2)c2ccccc2)[C@H](C(=O)NCCN(C)Cc2ccccc2OC)C1 | 250 nM | 470 nM
7 | COc1ccccc1CN[C@H]1C2CCN(CC2)[C@H]1C(c1ccccc1)c1ccccc1 [CP-96345] | – | 240 nM
8 | CCCCCN(CCCCC)C(=O)[C@@H]1CCN(C(=O)N(c2ccccc2)c2ccccc2)[C@H](C(=O)NCCN(C)Cc2ccccc2OC)C1 | 73 nM | –
9 | CCCCCN(CCCCC)C(=O)[C@H]1CCN(C(=O)N(c2ccccc2)c2ccccc2)[C@H](C(=O)NCCN(CC(N)=O)Cc2ccccc2OC)C1 | 1.8 nM | 5600 nM
10 | CCCCCN(CCCCC)C(=O)[C@H]1CCN(C(=O)N(c2ccccc2)c2ccccc2)[C@H](C(=O)O)C1 | 33 nM | > 5000 nM

More lines, now with the values ahead:

Row | IC50 (Substance-P receptor) | IC50 [1] | SMILES
11 | 13 nM | 2700 nM | CCCCCN(CCCCC)C(=O)[C@H]1CCN(C(=O)N(c2ccccc2)c2ccccc2)[C@H](C(=O)NCCNCC(N)=O)C1
12 | 3.5 nM | 3700 nM | CCCCCN(CCCCC)C(=O)[C@H]1CCN(C(=O)N(c2ccccc2)c2cccc(Cl)c2)[C@H](C(=O)NCCNCC(N)=O)C1
13 | 5.5 nM | 820 nM | CCCCCN(CCCCC)C(=O)[C@H]1CCN(C(=O)N(c2ccccc2)c2ccccc2)[C@H](C(=O)NCCCN(CC)CC)C1
14 | 3.8 nM | 16200 nM | CCCCCN(CCCCC)C(=O)[C@H]1CCN(C(=O)N(c2ccccc2)c2cccc(Cl)c2)[C@H](C(=O)NCCN(CC(N)=O)Cc2ccccc2OC)C1
15 | 1.8 nM | 200 nM | CCCCCN(CCCCC)C(=O)[C@H]1CCN(C(=O)N(c2ccccc2)c2ccccc2)[C@H](C(=O)NCCN(C)Cc2ccccc2OC)C1

Source: ChEMBL document CHEMBL1159130, “1,2,4-Triacylpiperidine substance p antagonists: Separation of affinities for the NK-1 receptor and the L-type calcium channel” (Bioorg Med Chem Lett, 1995)
